Values after ≈ are worked out from the molar mass of the structure shown. Like-named read-outs stand apart in the source and are kept apart here. Starred links: 1 amine or outer side, 2 acyl side, 3 side chain; linkers in the order of their positions; H or OH if unused. Positions of bridges follow the written chain, without caps; N, C: chain ends. Non-standard residues stand in square brackets, D forms with d. Residues, ends and D or L forms follow the SMILES beside them. *: point of attachment. Decanoyl(3R-OH) = CCCCCCC[C@@H](O)CC(=O)*; Phe(4-NH2) = Nc1ccc(C[C@H](N)C(=O)O)cc1; azaLeu = CC(C)CN(N[*:1])C(=O)[*:2]; hPhe = N[C@@H](CCc1ccccc1)C(=O)O; dDab = NCC[C@@H](N)C(=O)O; dDap = NC[C@@H](N)C(=O)O; Dab = NCC[C@H](N)C(=O)O
Columns and labels:
A. baumannii GN_093 PmxR = settings: GN 093 PmxR
Experimental: (§1) Bacteria were either obtained from American Type Culture Collection (ATCC; Manassas, Va., USA) or independent academic clinical isolate collections, as listed in Table 18 below. Bacteria were cultured in Nutrient broth (NB; Bacto Laboratories, catalogue No. 234000) or Mueller Hinton broth (MHB; Bacto Laboratories, catalogue No. 211443) at 37° C. overnight with shaking (˜180 RPM). A sample of each culture was then diluted 50-fold in fresh MHB and incubated at 37° C. for 2-3 h with shaking (˜180 RPM). Compound stock solutions were prepared as 0.64 mg/mL or 2.56 mg/mL in water. The compounds, at twice the final desired concentration, were serially diluted 2-fold across the wells of 96-well plates (Polystyrene, Corning, catalogue No. 3370). Mid-log phase bacterial cultures (after 2-3 h incubation) were diluted to a final concentration of 1×10^6 colony forming units (CFU)/mL, and 50 μL was added to each well giving a final cell density of 5×10^5 and a compound concentration range of 32 μg/mL to 0.015 μg/mL (128-0.06 μg/mL against P. aeruginosa PA9704).

A. baumannii ATCC 19606 = settings: ATCC 19606
Experimental: as §1

[1] = tested on: S. aureus ATCC 25923, MSSA; settings: ATCC 25923
Experimental: as §1

[2] = tested on: P. aeruginosa GN_105, PmxR; settings: GN 105, PmxR
Experimental: as §1

[3] = tested on: K. pneumoniae ATCC 700603, MDR; settings: ATCC 700603
Experimental: as §1

[4] = tested on: K. pneumoniae GN_106, PmxR; settings: GN 106, PmxR
Experimental: as §1

P. aeruginosa ATCC 27853 = settings: ATCC 27853
Experimental: as §1

[5] = tested on: K. pneumoniae GN_102 PmxR; settings: GN 102 PmxR
Experimental: as §1

E. coli ATCC 25922 = settings: ATCC 25922
Experimental: as §1

[6] = tested on: P. aeruginosa GN_043, PmxR
Experimental: as §1

K. pneumoniae ATCC 13883 = settings: ATCC 13883
Experimental: as §1

[7] = tested on: K. pneumoniae ATCC BAA-2146, NDM-1 pos; settings: ATCC BAA-2146
Experimental: as §1

CCCCCCC[C@@H](O)CC(=O)N[C@H](CCN)C(=O)N[C@H]1CCNC(=O)[C@H](CC(C)C)NC(=O)[C@H](Cc2ccc(N)cc2)NC(=O)[C@H](CCN)NC(=O)[C@H](CC(C)C)NC(=O)[C@@H](Cc2ccccc2)NC(=O)[C@H](CCN)NC1=O [compound 8644, 3(R)OH-nC9CO-D-Dab-cyc[L-Dab-L-DAB-D-Phe-L-Leu-L-Dab-L-4NH2Phe-L-Leu]] ({Decanoyl(3R-OH)}-[dDab][Dab][Dab][dF]L[Dab][Phe(4-NH2)]L; lactam 2-C)
MIC A. baumannii GN_093 PmxR (A. baumannii GN_093 PmxR): >32 µg/mL | MIC A. baumannii ATCC 19606 (A. baumannii ATCC 19606): 16 µg/mL (≈ 14.5 µM) | MIC S. aureus ATCC 25923, MSSA [1]: 32 µg/mL (≈ 28.9 µM) | MIC P. aeruginosa GN_105, PmxR [2]: 8 µg/mL (≈ 7.23 µM) | MIC K. pneumoniae ATCC 700603, MDR [3]: 8 µg/mL (≈ 7.23 µM) | MIC K. pneumoniae GN_106, PmxR [4]: 8 µg/mL (≈ 7.23 µM) | MIC P. aeruginosa ATCC 27853 (P. aeruginosa ATCC 27853): 8 µg/mL (≈ 7.23 µM) | MIC K. pneumoniae GN_102 PmxR [5]: 2 µg/mL (≈ 1.81 µM) | MIC E. coli ATCC 25922 (E. coli ATCC 25922): 16 µg/mL (≈ 14.5 µM) | MIC P. aeruginosa GN_043, PmxR ([6]; polymyxin-resistant): 8 µg/mL (≈ 7.23 µM) | MIC K. pneumoniae ATCC 13883 (K. pneumoniae ATCC 13883): 8 µg/mL (≈ 7.23 µM) | MIC K. pneumoniae ATCC BAA-2146, NDM-1 pos [7]: 4 µg/mL (≈ 3.62 µM)

CCCCCCC[C@@H](O)CC(=O)N[C@H](CCN)C(=O)N[C@H]1CCNC(=O)[C@H](CC(C)C)NC(=O)[C@H](CCN)NC(=O)[C@H](CCN)NC(=O)N(CC(C)C)NC(=O)[C@@H](Cc2ccccc2)NC(=O)[C@H](CCN)NC1=O [compound 8803, 3(R)OH-nC9CO-D-Dab-cyc[L-Dab-L-DAB-D-Phe-azaLeu-L-Dab-L-Dab-L-Leu]] ({Decanoyl(3R-OH)}-[dDab][Dab][Dab][dF][azaLeu][Dab][Dab]L; lactam 2-C)
MIC A. baumannii Cl Ptyela 10073 4512:2, PmxR (A. baumannii GN_093 PmxR): 32 µg/mL (≈ 30.6 µM) | MIC A. baumannii ATCC 19606 (A. baumannii ATCC 19606): 8 µg/mL (≈ 7.65 µM) | MIC S. aureus ATCC 25923, MSSA [1]: 16 µg/mL (≈ 15.3 µM) | MIC P. aeruginosa PA9704, PmxR [2]: 2 µg/mL (≈ 1.91 µM) | MIC K. pneumoniae ATCC 700603, MDR [3]: 8 µg/mL (≈ 7.65 µM) | MIC K. pneumoniae Cl 183-16357-20352, PmxR [4]: 4 µg/mL (≈ 3.83 µM) | MIC P. aeruginosa ATCC 27853 (P. aeruginosa ATCC 27853): 4 µg/mL (≈ 3.83 µM) | MIC K. pneumoniae Cl Koprana 10065 0661:1 PmxR [5]: 2 µg/mL (≈ 1.91 µM) | MIC E. coli ATCC 25922 (E. coli ATCC 25922): 2 µg/mL (≈ 1.91 µM) | MIC, P. aeruginosa FADDI-PA070, PmxR ([6]; strain name as in Table 11): 1 µg/mL (≈ 0.957 µM) | MIC K. pneumoniae ATCC 13883 (K. pneumoniae ATCC 13883): 8 µg/mL (≈ 7.65 µM) | MIC K. pneumoniae ATCC BAA-2146, NDM-1 pos [7]: 8 µg/mL (≈ 7.65 µM)

CCCCCCC[C@@H](O)CC(=O)N[C@H](CCN)C(=O)N[C@H]1CCNC(=O)[C@H](Cc2c[nH]c3ccccc23)NC(=O)[C@H](CCN)NC(=O)[C@H](CCN)NC(=O)[C@H](CCc2ccccc2)NC(=O)[C@@H](Cc2ccccc2)NC(=O)[C@H](CCN)NC1=O [compound 8834, nC10-3(R)OH-D-Dab-cyc[L-Dab-L-Dab-D-Phe-L-hPhe-L-Dab-L-Dab-L-Trp]] ({Decanoyl(3R-OH)}-[dDab][Dab][Dab][dF][hPhe][Dab][Dab]W; lactam 2-C)
MIC A. baumannii GN_093 PmxR (A. baumannii GN_093 PmxR): 8 µg/mL (≈ 6.86 µM) | MIC A. baumannii ATCC 19606 (A. baumannii ATCC 19606): 8 µg/mL (≈ 6.86 µM) | MIC S. aureus ATCC 25923, MSSA [1]: 4 µg/mL (≈ 3.43 µM) | MIC P. aeruginosa GN_105, PmxR [2]: 32 µg/mL (≈ 27.5 µM) | MIC K. pneumoniae ATCC 700603, MDR [3]: 8 µg/mL (≈ 6.86 µM) | MIC K. pneumoniae GN_106, PmxR [4]: 8 µg/mL (≈ 6.86 µM) | MIC P. aeruginosa ATCC 27853 (P. aeruginosa ATCC 27853): 4 µg/mL (≈ 3.43 µM) | MIC K. pneumoniae GN_102 PmxR [5]: 4 µg/mL (≈ 3.43 µM) | MIC E. coli ATCC 25922 (E. coli ATCC 25922): 8 µg/mL (≈ 6.86 µM) | MIC P. aeruginosa GN_043, PmxR ([6]; polymyxin-resistant): 4 µg/mL (≈ 3.43 µM) | MIC K. pneumoniae ATCC 13883 (K. pneumoniae ATCC 13883): 4 µg/mL (≈ 3.43 µM) | MIC K. pneumoniae ATCC BAA-2146, NDM-1 pos [7]: 8 µg/mL (≈ 6.86 µM)

CCCCCCC[C@@H](O)CC(=O)N[C@H](CN)C(=O)N[C@H]1CCNC(=O)[C@H](CC(C)C)NC(=O)[C@H](CCN)NC(=O)[C@H](CCN)NC(=O)[C@H](CC(C)C)NC(=O)[C@@H](CC(C)C)NC(=O)[C@H](CCN)NC1=O [compound 8977, nC10-3(R)OH-D-Dap-(L-Dab-L-Dab-D-Leu-L-Leu-L-Dab-L-Dab-L-Leu)] ({Decanoyl(3R-OH)}-[dDap][Dab][Dab][dL]L[Dab][Dab]L; lactam 2-C)
MIC A. baumannii GN_093 PmxR (A. baumannii GN_093 PmxR): 2 µg/mL (≈ 2.01 µM) | MIC A. baumannii ATCC 19606 (A. baumannii ATCC 19606): 8 µg/mL (≈ 8.03 µM) | MIC S. aureus ATCC 25923, MSSA [1]: 32 µg/mL (≈ 32.1 µM) | MIC P. aeruginosa GN_105, PmxR [2]: 2 µg/mL (≈ 2.01 µM) | MIC K. pneumoniae ATCC 700603, MDR [3]: 4 µg/mL (≈ 4.01 µM) | MIC K. pneumoniae GN_106, PmxR [4]: 4 µg/mL (≈ 4.01 µM) | MIC P. aeruginosa ATCC 27853 (P. aeruginosa ATCC 27853): 4 µg/mL (≈ 4.01 µM) | MIC K. pneumoniae GN_102 PmxR [5]: 2 µg/mL (≈ 2.01 µM) | MIC E. coli ATCC 25922 (E. coli ATCC 25922): 4 µg/mL (≈ 4.01 µM) | MIC P. aeruginosa GN_043, PmxR ([6]; P. aeruginosa GN_043, PmxR): 2 µg/mL (≈ 2.01 µM) | MIC K. pneumoniae ATCC 13883 (K. pneumoniae ATCC 13883): 8 µg/mL (≈ 8.03 µM) | MIC K. pneumoniae ATCC BAA-2146, NDM-1 pos [7]: 8 µg/mL (≈ 8.03 µM)
